# Patent publication US20190276793A1, “Methods and Apparatus for Regulation of Gene Expression Across a Large-Scale Solid Structure” (Massachusetts Institute of Technology, priority 2018, published 2019)
# Tested on: E. coli strain IPTG/GFP
# Experiment: GFP induction by cured chemical signaling resin in the IPTG/GFP reporter strain
# Format: cell-based
# Conditions: IPTG 2.0 M, after UV-curing
# Description: In some use cases, this prototype facilitates fluorometric assays of gene expression as follows: Strains with fluorescent protein outputs are constructed. The strains IPTG/GFP, AHL/GFP, and RHA/GFP each express a green fluorescent protein (GFP) under the control of promoters LacI, LuxR, and RhaBAD when induced by the chemicals IPTG, N-acyl homoserine lactone (AHL), Rhamnose (RHA), respectively. For orthogonal AHL and IPTG patterning, the strain AHL/RFP is also cloned to produce a differentiable red fluorescent protein (RFP) under AHL-inducible control. Also, gene constructs using combinatorial promoters (where IPTG.AHL/GFP equated to NAND logic function and IPTG.AHL/GFP equated to AND logic function) were cloned for HLM objects performing spatial patterning from two-input cell logic. These transcriptional regulators may be utilized for multi-signal pattern generation.
# In a test of this prototype, different photopolymer resins (with embedded chemical signaling molecules) were created by mixing incremental concentrations and ratios of DMSO-solubilized inducer, IPTG, and uncured resin in low light. To rapidly manufacture test pieces, a VeroClear™ RGD810 tray was printed with 3×3 circular wells (10 mm diameter, 3 mm depth). […]
structure (smiles),measurement,value
"CC(C)S[C@@H]1O[C@H](CO)[C@H](O)[C@H](O)[C@H]1O [IPTG, Isopropyl β-D-1-thiogalactopyranoside]",induction in E. coli strain IPTG/GFP,robust induction
